# Reference: ChEMBL document CHEMBL4257443, “The discovery of a potent Nav1.3 inhibitor with good oral pharmacokinetics” (Medchemcomm, 2017)
# Columns and labels:
# [1] = Lipophilicity, log D of the compound; format: physicochemical; conditions: octanol/water
# [2] = target: T1, Sodium channel protein type 3 subunit alpha (Homo sapiens, UniProt Q9NY46); assay: Inhibition of human NaV1.3 expressed in HEK cells by electrophysiological method; format: cell-based
# [3] = Dissociation constant, pKa of compound; format: physicochemical
# [4] = target: T1, Sodium channel protein type 3 subunit alpha; assay: Inhibition of NaV1.3 (unknown origin) expressed in HEK293 cells by CC2-DMPE/DiSBAC2(3) dye-based FRET assay; format: cell-based
# [5] = Clearance in rat; format: ADME, organism-based; conditions: in vivo
# CYP2C9 = CYP2C9 (Homo sapiens, UniProt P11712); assay: Inhibition of CYP2C9 (unknown origin) at 3 uM by high throughput assay relative to control; format: ADME
# Chain of CYP2C9 (P11712 whole entry): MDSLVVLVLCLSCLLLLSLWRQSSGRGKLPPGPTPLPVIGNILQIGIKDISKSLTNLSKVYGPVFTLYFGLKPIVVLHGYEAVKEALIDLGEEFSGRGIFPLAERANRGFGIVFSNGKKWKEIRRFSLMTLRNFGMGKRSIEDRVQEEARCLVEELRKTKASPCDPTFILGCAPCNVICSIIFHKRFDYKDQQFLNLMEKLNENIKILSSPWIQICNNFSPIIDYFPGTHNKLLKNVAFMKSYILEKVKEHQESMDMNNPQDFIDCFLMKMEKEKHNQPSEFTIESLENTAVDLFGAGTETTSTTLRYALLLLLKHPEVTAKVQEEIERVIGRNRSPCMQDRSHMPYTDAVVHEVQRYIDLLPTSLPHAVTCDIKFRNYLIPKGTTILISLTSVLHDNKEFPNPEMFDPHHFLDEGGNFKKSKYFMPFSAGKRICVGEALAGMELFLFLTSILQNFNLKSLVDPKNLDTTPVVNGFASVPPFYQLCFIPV
# [6] = target: Voltage-gated inwardly rectifying potassium channel KCNH2 (Homo sapiens, UniProt Q12809); assay: Inhibition of human ERG
# [7] = target: Sodium channel protein type 9 subunit alpha (Homo sapiens, UniProt Q15858); assay: Inhibition of human NaV1.7
# Chain of Sodium channel protein type 9 subunit alpha (Q15858 whole entry): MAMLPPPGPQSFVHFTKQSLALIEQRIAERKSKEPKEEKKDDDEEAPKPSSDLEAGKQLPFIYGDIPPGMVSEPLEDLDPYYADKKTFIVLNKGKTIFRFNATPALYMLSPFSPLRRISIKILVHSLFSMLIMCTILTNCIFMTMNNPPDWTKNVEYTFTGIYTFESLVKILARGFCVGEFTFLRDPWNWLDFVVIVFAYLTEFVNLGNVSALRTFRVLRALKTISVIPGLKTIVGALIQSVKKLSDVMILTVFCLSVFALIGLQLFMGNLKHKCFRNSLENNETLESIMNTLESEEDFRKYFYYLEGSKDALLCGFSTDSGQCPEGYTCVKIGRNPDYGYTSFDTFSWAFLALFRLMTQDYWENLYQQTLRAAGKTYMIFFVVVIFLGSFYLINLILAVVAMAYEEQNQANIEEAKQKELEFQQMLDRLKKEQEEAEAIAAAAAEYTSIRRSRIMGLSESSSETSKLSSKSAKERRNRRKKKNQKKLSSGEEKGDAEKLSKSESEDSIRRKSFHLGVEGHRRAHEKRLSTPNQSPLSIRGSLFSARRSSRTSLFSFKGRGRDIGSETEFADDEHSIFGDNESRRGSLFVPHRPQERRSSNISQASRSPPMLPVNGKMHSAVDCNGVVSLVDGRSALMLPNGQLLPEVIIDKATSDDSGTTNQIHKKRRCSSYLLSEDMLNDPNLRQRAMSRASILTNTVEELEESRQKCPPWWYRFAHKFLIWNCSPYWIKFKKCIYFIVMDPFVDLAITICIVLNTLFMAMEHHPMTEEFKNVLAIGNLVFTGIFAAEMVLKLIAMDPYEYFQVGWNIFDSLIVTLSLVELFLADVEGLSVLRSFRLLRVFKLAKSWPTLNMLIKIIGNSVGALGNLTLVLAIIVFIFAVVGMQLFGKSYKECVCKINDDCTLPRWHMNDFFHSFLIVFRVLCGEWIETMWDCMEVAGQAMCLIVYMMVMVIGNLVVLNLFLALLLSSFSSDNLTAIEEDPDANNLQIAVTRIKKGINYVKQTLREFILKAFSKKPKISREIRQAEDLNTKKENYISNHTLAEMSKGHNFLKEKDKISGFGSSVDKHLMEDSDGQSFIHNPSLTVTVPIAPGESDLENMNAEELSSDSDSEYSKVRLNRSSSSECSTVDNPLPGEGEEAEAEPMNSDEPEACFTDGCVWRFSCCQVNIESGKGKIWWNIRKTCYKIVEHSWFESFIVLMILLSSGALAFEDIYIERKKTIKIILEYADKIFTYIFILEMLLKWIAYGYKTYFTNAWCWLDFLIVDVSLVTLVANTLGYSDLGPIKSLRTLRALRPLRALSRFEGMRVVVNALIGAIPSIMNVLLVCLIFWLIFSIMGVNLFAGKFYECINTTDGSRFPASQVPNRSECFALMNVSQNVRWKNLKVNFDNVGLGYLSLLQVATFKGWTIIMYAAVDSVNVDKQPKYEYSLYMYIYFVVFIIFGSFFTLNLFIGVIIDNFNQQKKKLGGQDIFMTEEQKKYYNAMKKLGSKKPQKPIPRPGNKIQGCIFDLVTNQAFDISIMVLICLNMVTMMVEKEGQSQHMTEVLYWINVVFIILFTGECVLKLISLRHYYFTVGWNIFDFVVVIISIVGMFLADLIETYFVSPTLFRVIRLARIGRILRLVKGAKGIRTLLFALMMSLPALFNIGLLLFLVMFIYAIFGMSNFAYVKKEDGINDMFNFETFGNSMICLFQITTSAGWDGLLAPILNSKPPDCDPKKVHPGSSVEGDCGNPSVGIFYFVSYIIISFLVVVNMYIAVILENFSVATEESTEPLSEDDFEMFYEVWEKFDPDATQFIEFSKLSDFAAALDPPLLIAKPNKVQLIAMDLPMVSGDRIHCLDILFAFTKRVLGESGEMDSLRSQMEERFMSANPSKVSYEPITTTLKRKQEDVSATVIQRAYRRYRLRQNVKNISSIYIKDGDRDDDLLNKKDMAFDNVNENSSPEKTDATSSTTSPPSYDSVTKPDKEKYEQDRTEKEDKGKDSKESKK
# [8] = Clearance in human liver microsomes; format: ADME, microsome; conditions: read-out: CLH
# MDR1 = assay: Efflux ratio of permeability across basolateral to apical over apical to basolateral side in RRCK cells expressing MDR1; format: ADME, cell-based, Canis lupus familiaris, MDCKII-LE; conditions: dog, MDCK-MDR1
# [9] = Volume of distribution in rat; format: ADME, organism-based; conditions: in vivo
# [10] = target: Sodium channel protein type 5 subunit alpha (Homo sapiens, UniProt Q14524); assay: Inhibition of human NaV1.5
# [11] = target: Sodium channel protein type 8 subunit alpha (Homo sapiens, UniProt Q9UQD0); assay: Inhibition of human NaV1.6
# [12] = Oral bioavailability in rat; format: ADME, organism-based; conditions: in vivo
# [13] = target: Sodium channel protein type 1 subunit alpha (Homo sapiens, UniProt P35498); assay: Inhibition of human NaV1.1
# [14] = target: Sodium channel protein type 2 subunit alpha (Homo sapiens, UniProt Q99250); assay: Inhibition of human NaV1.2
# [15] = Aqueous solubility of compound; format: physicochemical; conditions: buffer
# CYP3A4 = CYP3A4 (Homo sapiens, UniProt P08684); assay: Inhibition of CYP3A4 (unknown origin) at 3 uM by high throughput assay relative to control; format: ADME
# Chain of CYP3A4 (P08684 whole entry): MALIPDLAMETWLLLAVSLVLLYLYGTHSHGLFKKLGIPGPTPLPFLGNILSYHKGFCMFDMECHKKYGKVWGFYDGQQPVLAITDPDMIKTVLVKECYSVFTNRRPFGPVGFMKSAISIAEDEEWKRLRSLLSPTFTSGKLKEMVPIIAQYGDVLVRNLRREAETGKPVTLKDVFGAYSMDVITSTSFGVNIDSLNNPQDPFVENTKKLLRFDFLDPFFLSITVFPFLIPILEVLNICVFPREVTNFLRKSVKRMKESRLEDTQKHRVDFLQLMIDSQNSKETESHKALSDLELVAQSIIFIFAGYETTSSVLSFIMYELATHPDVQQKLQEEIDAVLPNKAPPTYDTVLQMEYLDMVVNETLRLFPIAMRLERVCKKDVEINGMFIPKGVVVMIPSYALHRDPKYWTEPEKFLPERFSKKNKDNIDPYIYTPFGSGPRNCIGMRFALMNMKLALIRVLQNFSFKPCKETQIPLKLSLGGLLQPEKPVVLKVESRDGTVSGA
# [16] = target: Sodium channel protein type 10 subunit alpha (Homo sapiens, UniProt Q9Y5Y9); assay: Inhibition of human NaV1.8
# [17] = Elimination half life in rat; format: ADME, organism-based; conditions: in vivo, read-out: beta t1/2 (converted)
# [18] = Clearance in cynomolgus monkey liver microsomes; format: ADME, Macaca fascicularis, microsome; conditions: read-out: CLH
# [19] = Clearance in rat liver microsomes; format: ADME, microsome; conditions: read-out: CLH
# [20] = Clearance in dog liver microsomes; format: ADME, Canis lupus familiaris, microsome; conditions: read-out: CLH
# [21] = Fraction unbound in rat plasma; format: ADME, cell-free
# T1 sequence (Q9NY46 whole entry): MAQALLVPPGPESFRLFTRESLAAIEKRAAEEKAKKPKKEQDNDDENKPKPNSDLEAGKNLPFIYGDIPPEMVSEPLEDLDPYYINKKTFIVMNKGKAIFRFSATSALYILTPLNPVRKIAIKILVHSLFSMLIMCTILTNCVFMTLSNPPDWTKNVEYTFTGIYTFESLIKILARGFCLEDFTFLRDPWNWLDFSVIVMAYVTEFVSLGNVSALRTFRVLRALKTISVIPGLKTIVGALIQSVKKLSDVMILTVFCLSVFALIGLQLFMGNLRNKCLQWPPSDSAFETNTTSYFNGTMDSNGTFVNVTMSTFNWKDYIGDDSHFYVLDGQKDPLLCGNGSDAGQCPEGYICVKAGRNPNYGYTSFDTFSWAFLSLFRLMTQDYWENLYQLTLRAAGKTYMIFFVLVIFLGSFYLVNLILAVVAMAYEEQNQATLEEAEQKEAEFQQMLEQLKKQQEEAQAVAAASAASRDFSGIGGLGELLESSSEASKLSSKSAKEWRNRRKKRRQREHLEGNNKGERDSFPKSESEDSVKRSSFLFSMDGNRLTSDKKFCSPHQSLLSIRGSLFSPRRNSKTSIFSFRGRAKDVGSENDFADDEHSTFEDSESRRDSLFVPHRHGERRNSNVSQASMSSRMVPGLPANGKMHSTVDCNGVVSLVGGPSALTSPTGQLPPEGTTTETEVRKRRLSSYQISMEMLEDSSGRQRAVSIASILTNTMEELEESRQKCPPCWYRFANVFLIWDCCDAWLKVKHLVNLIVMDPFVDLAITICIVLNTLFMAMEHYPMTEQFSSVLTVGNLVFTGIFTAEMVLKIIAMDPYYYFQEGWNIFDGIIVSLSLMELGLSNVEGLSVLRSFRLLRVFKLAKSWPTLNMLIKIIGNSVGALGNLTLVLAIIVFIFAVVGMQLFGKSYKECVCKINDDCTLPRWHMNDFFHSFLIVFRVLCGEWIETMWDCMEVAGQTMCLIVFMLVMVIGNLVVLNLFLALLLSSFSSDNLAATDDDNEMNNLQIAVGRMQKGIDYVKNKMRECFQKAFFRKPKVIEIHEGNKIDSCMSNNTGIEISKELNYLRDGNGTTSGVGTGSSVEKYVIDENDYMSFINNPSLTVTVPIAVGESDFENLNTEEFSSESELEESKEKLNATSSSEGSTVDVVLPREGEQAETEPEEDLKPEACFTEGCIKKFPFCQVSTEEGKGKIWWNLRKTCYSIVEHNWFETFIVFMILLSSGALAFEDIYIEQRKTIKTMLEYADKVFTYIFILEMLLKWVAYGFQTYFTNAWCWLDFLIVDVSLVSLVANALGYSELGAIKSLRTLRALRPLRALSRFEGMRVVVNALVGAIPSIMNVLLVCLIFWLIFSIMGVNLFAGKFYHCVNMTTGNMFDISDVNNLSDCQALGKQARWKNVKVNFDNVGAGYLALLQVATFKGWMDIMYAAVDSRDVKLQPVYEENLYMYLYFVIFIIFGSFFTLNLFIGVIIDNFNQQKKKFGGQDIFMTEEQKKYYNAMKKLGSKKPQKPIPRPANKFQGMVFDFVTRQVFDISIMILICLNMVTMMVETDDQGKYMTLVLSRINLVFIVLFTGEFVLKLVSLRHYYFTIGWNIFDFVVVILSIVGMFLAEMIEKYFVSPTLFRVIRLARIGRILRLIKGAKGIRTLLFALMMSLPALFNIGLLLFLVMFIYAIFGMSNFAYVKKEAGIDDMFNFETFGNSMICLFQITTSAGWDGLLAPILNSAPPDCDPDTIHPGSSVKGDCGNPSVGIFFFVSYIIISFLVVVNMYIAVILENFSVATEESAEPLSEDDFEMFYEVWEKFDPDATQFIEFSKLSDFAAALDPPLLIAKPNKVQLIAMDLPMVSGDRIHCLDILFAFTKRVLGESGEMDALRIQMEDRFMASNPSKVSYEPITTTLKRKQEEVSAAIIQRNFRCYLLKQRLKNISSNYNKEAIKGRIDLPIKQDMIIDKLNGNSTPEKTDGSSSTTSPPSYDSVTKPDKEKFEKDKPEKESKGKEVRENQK
smiles,measurement,setting,value
O=C(NCc1ccc(OC(F)(F)F)c(Cl)c1)c1ccc(S(=O)(=O)Nc2cncnc2)c(F)c1,logD,[1],2
same,IC50,[2],> 3000 nM
same,pKa,[3],4.6
O=C1[C@@H](N2CC[C@H](c3cc(Cl)cc(Cl)c3)C2)CCN1c1ccc(S(=O)(=O)Nc2nccs2)cc1,IC50,[4],< 2000 nM
O=C(NCc1ccc(OC(F)(F)F)c(Cl)c1)c1ccc(S(=O)(=O)Nc2ncns2)c(F)c1,clearance,[5],4.4 mL/min/kg
same,inhibition at 3 µM,CYP2C9,88%
same,IC50,[6],> 100000 nM
same,IC50,[7],1800 nM
same,logD,[1],2.1
same,IC50,[2],13 nM
same,microsomal CLint,[8],< 8 µL/min/mg
same,efflux ratio,MDR1,1
same,Vd,[9],0.1 L/kg
same,IC50,[10],4870 nM
same,IC50,[11],2100 nM
same,bioavailability,[12],4%
same,IC50,[13],12 nM
same,IC50,[14],920 nM
same,pKa,[3],3.3
same,solubility,[15],369 µg/mL
same,inhibition at 3 µM,CYP3A4,88%
same,IC50,[16],11300 nM
O=C(c1ccc(OC(F)(F)F)c(Cl)c1)N1CC(OCc2ccc(S(=O)(=O)Nc3ncns3)cc2)C1,logD,[1],1.3
same,IC50,[2],237 nM
O=C(COc1ccc(F)cc1)N1CCc2cc(S(=O)(=O)Nc3ncns3)ccc21,logD,[1],0.4
same,IC50,[2],1270 nM
O=C(NCc1ccc(OC(F)(F)F)c(Cl)c1)c1ccc(S(=O)(=O)Nc2cccnn2)c(F)c1,logD,[1],2.4
same,IC50,[2],1790 nM
O=S(=O)(Nc1ncns1)c1ccc(OCc2ccc(OC(F)(F)F)c(Cl)c2)cc1,clearance,[5],2 mL/min/kg
same,half-life,[17],7 h
same,microsomal CLint,[18],< 32 µL/min/mg
same,inhibition at 3 µM,CYP2C9,85%
same,IC50,[6],> 10000 nM
same,IC50,[7],5100 nM
same,logD,[1],2.65
same,microsomal CLint,[19],< 14 µL/min/mg
same,IC50,[2],22 nM
same,microsomal CLint,[8],15 µL/min/mg
same,efflux ratio,MDR1,1
same,Vd,[9],1 L/kg
same,bioavailability,[12],73%
same,IC50,[13],455 nM
same,IC50,[14],2760 nM
same,pKa,[3],4.1
same,solubility,[15],99 µM
same,inhibition at 3 µM,CYP3A4,75%
same,IC50,[16],15100 nM
same,microsomal CLint,[20],< 18 µL/min/mg
same,fraction unbound,[21],0.00024
O=S(=O)(CCc1ccc(C(F)(F)F)cc1)c1ccc(S(=O)(=O)Nc2nccs2)cc1,IC50,[2],155 nM
O=S(=O)(NCc1ccc(C(F)(F)F)cc1)c1ccc(S(=O)(=O)Nc2nccs2)cc1,IC50,[2],160 nM
O=C(NCc1ccc(OC(F)(F)F)cc1)c1ccc(S(=O)(=O)Nc2nccs2)cc1,logD,[1],2.6
same,IC50,[2],197 nM
O=S(=O)(Nc1nccs1)c1ccc(S(=O)(=O)N2CCC[C@@H]2CNc2ncnc3[nH]ccc23)cc1F,IC50,[2],> 3000 nM
O=S(=O)(Nc1nccs1)c1ccc(S(=O)(=O)N2CC[C@H](Oc3ccc(C(F)(F)F)cn3)C2)cc1F,IC50,[2],851 nM
O=S(=O)(Nc1nccs1)c1ccc(S(=O)(=O)N2CC(Oc3ccccc3)C2)cc1F,logD,[1],1.4
same,IC50,[2],959 nM
O=C(Cc1ccccc1)Nc1ccc(S(=O)(=O)Nc2nccs2)cc1,IC50,[2],3790 nM
O=S(=O)(Nc1ncns1)c1ccc(Oc2ccc(OC(F)(F)F)c(Cl)c2)cc1,logD,[1],2.5
same,IC50,[2],296 nM
O=C(NCc1ccc(OC(F)(F)F)c(Cl)c1)c1ccc(S(=O)(=O)Nc2ncc(F)cn2)c(F)c1,logD,[1],2.1
same,IC50,[2],993 nM
